Test results published in patent US20150020916A1, “Antiperspirant Spray Devices and Compositions” (The Procter & Gamble Company, priority 2013, published 2015).

Text: (§1) Solubility may be determined by measuring the amount of light transmittance (a light transmittance value) through a simple mixture of the non-volatile silicone fluid and liquid activation enhancer at the same weight/weight concentrations as in a final antiperspirant composition.
as §1, with “Solubility of a liquid activation enhancer in a non-volatile silicone” for “Solubility”, “(light” for “(a light”
The Spectronic Genesys 10 Vis utilizes a tungsten-halogen light source and has a spectral bandwidth of 5 nm, a wavelength range of 325 to 1100 nm, accuracy of ±1 nm and a repeatability of ±0.5 nm. Readouts include absorbance, transmittance and concentration. The spectrophotometer is set to 640 nm wavelength and the percent transmittance mode/readout. Polystyrene spectrometer cuvettes having a 1 cm optical light path and transmittance between ˜340 nm and ˜900 nm are used. One suitable example of a spectrometer cuvette is available from VWR International LLC under Catalog #97000-584 having a 2.5 to 4.5 ml capacity. The spectrophotometer is calibrated according to the manufacturer's instructions using a reference cuvette and composition comprised of just the non-volatile silicone fluid of interest. For example, if the test composition comprises 50 centistoke dimethicone and 15% w/w of isopropyl myristate, then the spectrometer is calibrated using a cuvette containing just 50 centistoke dimethicone. Sample cuvettes are filled sufficiently with a test composition of a non-volatile silicone fluid and liquid activation enhancer so that the light path of the spectrophotometer passes through the test composition in the cuvette. The sample cuvettes are shaken well just prior to taking a light transmittance reading.

| Compound | light transmittance value | solubility in 50 centistoke dimethicone |
| --- | --- | --- |
| CCCCCCCCCCCCCCCCCC(=O)OCCCC [butyl stearate] | about 100% | – |
| CCCCCCCCCCCCCC(C)C [isohexadecane] | about 100% | soluble |
| CCCCCCCCCCCCCC(=O)OC(C)C [isopropyl myristate] | about 101% | – |
| CCCCCCCCCCCCCCCC(=O)OC(C)C [isopropyl palmitate] | about 101% | – |
| CCCCCCCCCCC(CO)CCCCCCCC (centres unmarked) [octyldodecanol] | – | soluble in the 50 centistoke dimethicone at some (lower) concentrations |
| PPG-14 butyl ether | – | insoluble |
| mineral oil | – | soluble in 50 centistoke dimethicone at some (lower) concentrations |
